Results as given in publication PMC7997578, “Design, Synthesis, Dynamic Docking, Biochemical Characterization, and in Vivo Pharmacokinetics Studies of Novel Topoisomerase II Poisons with Promising Antiproliferative Activity” (Journal of Medicinal Chemistry, 2020).
Converted amounts (≈) assume the structure as drawn. Read-outs that look alike come from different tables or passages of the source.

Tests used:
[1] = tested on: A549 cells; test: cell viability MTT assay, A549; format: cell-based, human; settings: mean ± SD of two experiments, read-out: A549 antiproliferative activity IC50
Description: (§1) The antiproliferative activity of all compounds was evaluated in (i) DU145, an androgen-independent prostate cancer cell line; (ii) HeLa, a cervical cancer cell line; and (iii) A549, a lung adenocarcinoma cell line (Table 1). […] Undoubtedly, this preliminary cytotoxicity data will need further characterization, also in relation to the in vitro activity of these compounds.
(§2) Human cancer cell lines A549 (lung adenocarcinoma, ATCC CCL-185), DU-145 (androgen-independent prostate cancer, ATCC HTB-81), and HeLa (cervical carcinoma, ATCC CCL-2) were obtained from ATCC. Cells were routinely grown in minimal essential medium containing Eagle’s salts and L-glutamine supplemented with 10% heat-inactivated FBS in a humidified atmosphere of 5% CO2 at 37 °C. To assess the antiproliferative activity of the compounds, cells were seeded at a density of 2500 cells/well (HeLa) or 5000 cells/well (A549, DU-145) in 96-well plates, and cell viability was measured using the MTT assay as described previously.[39] Values are reported as the mean ± SD of two independent experiments.

[2] = tested on: HeLa cells; test: cell viability MTT assay, HeLa; format: cell-based, human; settings: HeLa cervical cancer cells, mean ± SD of two experiments, read-out: HeLa antiproliferative activity IC50
Description: as §1, §2

[3] = tested on: DU145 cells; test: cell viability MTT assay, DU145; format: cell-based, human; settings: mean ± SD of two experiments, read-out: DU145 antiproliferative activity IC50
Description: as §1, §2

[4] = biological target: T1, human topoIIα (Homo sapiens, UniProt P11388); test: topoII decatenation assay (Inspiralis); format: biochemical
T1 construct: purchased Inspiralis
T1 sequence (P11388 whole entry): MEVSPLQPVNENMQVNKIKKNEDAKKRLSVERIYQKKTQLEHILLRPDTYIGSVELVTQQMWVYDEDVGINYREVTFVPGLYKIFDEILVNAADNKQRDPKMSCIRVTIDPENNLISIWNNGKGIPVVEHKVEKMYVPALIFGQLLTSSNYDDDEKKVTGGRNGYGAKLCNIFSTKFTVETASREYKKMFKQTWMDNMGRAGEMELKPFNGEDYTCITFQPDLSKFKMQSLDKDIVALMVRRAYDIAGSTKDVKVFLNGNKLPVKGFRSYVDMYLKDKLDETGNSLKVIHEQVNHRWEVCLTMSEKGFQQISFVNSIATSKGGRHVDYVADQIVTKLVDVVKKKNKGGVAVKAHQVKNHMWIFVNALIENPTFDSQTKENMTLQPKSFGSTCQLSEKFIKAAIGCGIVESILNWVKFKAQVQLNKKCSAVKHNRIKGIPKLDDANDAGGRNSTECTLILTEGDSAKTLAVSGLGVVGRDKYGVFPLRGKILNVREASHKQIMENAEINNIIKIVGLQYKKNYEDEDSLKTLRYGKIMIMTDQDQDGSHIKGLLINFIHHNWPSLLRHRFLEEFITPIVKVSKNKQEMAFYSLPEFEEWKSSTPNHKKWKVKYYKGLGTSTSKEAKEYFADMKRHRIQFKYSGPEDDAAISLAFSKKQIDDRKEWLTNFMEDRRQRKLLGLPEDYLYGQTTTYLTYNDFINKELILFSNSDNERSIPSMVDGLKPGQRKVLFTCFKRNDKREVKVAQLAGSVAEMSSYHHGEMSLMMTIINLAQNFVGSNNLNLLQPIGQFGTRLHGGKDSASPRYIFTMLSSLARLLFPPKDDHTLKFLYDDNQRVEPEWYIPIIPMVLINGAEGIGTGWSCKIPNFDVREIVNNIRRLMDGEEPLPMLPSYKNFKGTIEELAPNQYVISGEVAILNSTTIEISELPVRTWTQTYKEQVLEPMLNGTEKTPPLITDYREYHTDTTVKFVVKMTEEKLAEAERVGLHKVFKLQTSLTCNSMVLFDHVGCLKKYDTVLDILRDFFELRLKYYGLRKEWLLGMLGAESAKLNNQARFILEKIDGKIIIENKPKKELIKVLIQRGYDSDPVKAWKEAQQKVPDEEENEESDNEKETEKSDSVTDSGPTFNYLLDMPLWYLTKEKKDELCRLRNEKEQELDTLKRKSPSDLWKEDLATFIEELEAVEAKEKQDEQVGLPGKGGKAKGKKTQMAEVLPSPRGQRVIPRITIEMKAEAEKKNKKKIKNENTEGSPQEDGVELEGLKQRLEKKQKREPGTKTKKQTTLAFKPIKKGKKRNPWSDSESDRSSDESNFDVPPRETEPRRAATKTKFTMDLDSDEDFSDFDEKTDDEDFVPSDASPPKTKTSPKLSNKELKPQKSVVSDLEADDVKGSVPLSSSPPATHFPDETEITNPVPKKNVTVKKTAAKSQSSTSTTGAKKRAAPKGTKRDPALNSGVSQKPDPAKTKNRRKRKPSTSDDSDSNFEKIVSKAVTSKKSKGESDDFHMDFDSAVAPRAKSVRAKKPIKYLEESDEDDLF
Description: We measured the inhibitor activity of our new compounds against human topoIIα, using a topoII decatenation assay (Table 1).
The activity of topoIIα was measured using a decatenation assay (Inspiralis) following the manufacturer’s instructions. Compounds were dissolved in DMSO and used at a concentration ranging from 200 to 1 μM. Final DMSO concentration in the assay was ≤1%. Reaction mixtures were incubated for 30 min at 37 °C and terminated with STEB buffer (40% (w/v) sucrose, 100 mM Tris-HCl, pH 8, 1 mM EDTA, 0.5 mg/mL bromophenol blue). Reaction products were resolved by electrophoresis in 1% agarose gels containing SYBR Safe DNA stain (Invitrogen), scanned, and quantified using the ChemiDoc system (BioRad). IC50 values were obtained with GraphPad Prism software (version 5.03) using the band intensities of the dose–response gels. Values are reported as the mean ± SD of two independent experiments.

[5] = aqueous kinetic solubility; format: physicochemical; settings: PBS, pH 7.4, PBS pH 7.4, target 250 µM, 2.5% DMSO, 25°C
Description: 1. In vitro m etabolic stabili ty
In vitro microsomial stability. 10mM DMSO stock solution of test compound was pre-incubated at 37 °C for 15min with mouse liver microsomes added 0.1M Tris-HCl buffer (pH 7.4). The final concentration was 4.6µM. After pre -incubation, the co-factors (NADPH, G6P, G6PDH and MgCl2 pre-dissolved in 0.1M Tris-HCl) were added to the incubation mixture and the incubation was continued at 37 °C for 1h. At each time point (0, 5, 15, 30, 60min), 30µL of incubation mixture was diluted with 200µL cold CH 3CN spiked with 200n M of internal standard, followed by centrifugation at 3500g for 15min. The supernatant was further diluted with H2O (1:1) for analysis. The concentration of test compound was quantified by LC/MS-MS on a Waters ACQUITY UPLC/M S TQD system consisting of a TQD (Triple Quadrupole Detector) Mass Spectrometer equipped with an Electrospray Ionization interface. The analyses were run on an ACQUITY UPLC BEH C18 (50x2.1mmID, particle size 1.7µm) with a VanGuard BEH C18 pre -column (5x2.1mmID, particle size 1.7µm) at 40°C, using 0.1% HCOOH in H 2O (A) and 0.1% HCOOH in CH 3CN (B) as mobile phase. Electrospray ionization (ESI) was app lied in positive mode . The percentage of test compound remaining at each time point relative to t=0 was calculated. The half -lives (t½) were determined by an one-phase decay equation using a non -linear regression of compound concentration versus time.
In vitro Plasma Stability. 10mM DMSO stock solution of test compound was diluted 50 -fold with DMSO-H2O (1:1) and incubated at 37 °C for 2 h with mouse plasma added 5% DMSO (pre-heated at 37 °C for 10 min). The final concentration was 2µM. At each time point (0, 5, 15, 30, 60, 120min), 50 µL of incubation mixture was diluted with 200µL cold CH3CN spiked with 200nM of internal standard, followed by centrifugation at 3500g for 20min. The supernatant was further diluted with H2O (1:1) for analysis. The concentration of test compound was quantified by LC/MS-MS on a Waters ACQUITY UPLC/MS TQD system consisting of a TQD (Triple Quadrupole Detector) Mass Spectrometer equipped with an Electrospray Ionization interface. The analyses were run on an ACQUITY UPLC BEH C18 (50x2.1mmID, particle size 1.7µm) with a VanGuard BEH C18 pre - column (5x2.1mmID, particle size 1.7µm) at 40°C, using 0.1% HCOOH in H2O (A) and 0.1% HCOOH in CH3CN (B) as mobile phase. Electrospray ionization (ESI) was applied in positive mode.
The response factors, calculated on the basis of the internal standard peak area, were plotted over time. When possible, response vs. time profiles were fitted with Prism (GraphPad Software, Inc., USA) to estimate compounds half-life in plasma.
2. Aqueous ki netic solu bili ty
The aqueous kinetic solubility was determined from a 10mM DMSO stock solution of test compound in Phosphate Buffered Saline (PBS) at pH 7.4. The study was performed by incubation of an aliquot of 10mM DMSO stock solution in PBS (pH 7.4) at a target concentration of 250µM resulting in a final concentration of 2.5% DMSO. The incubation was carried out under shaking at 25°C for 24h followed by centrifugation at 21.100g for 30min. The supernatant was analyzed by UPLC/MS for the quantification of dissolved compound by UV at a specific wavelength (215nm).
The analyses were performed on a Waters ACQUITY UPLC/MS SQD system consisting of a SQD (Single Quadrupole Detector) Mass Spectrometer equipped with Electrospray Ionization interface.
The analyses were run on an ACQUITY UPLC BEH C18 column (50x2.1mmID, particle size 1.7µm) with a VanGuard BEH C18 pre-column (5x2.1mmID, particle size 1.7µm), using 10mM NH4OAc in H2O at pH 5 adjusted with AcOH (A) and 10mM NH4OAc in MeCN-H2O (95:5) at pH 5 (B) as […]

[6] = Homo sapiens, A549, A549 lung adenocarcinoma cells
[7] = Homo sapiens, DU-145, DU145 prostate cancer cells
[8] = human topoIIα decatenation assay, mean ± SD of two independent experiments, read-out: IC50
[9] = topoIIα decatenation IC50 versus ARN16267

| Structure (SMILES) | IC50 [1, 6] [µM] | IC50 ([2]; Homo sapiens, HeLa) [µM] | IC50 [3, 7] [µM] | IC50 [4, 8] [µM] | IC50 ([1]; A549 lung adenocarcinoma cells) [µM] | IC50 [2] [µM] | IC50 ([3]; DU145 prostate cancer cells) [µM] | solubility kinetic at 24 h [5] [µM] | IC50 [4] [µM] | fold drop in activity compared to ARN16267 [4, 9] [fold] | fold increased activity compared to ARN16267 [4, 9] [fold] |
| --- | --- | --- | --- | --- | --- | --- | --- | --- | --- | --- | --- |
| COc1cc(NC(=O)c2c(O)n(-c3ccccc3)c(=S)n(-c3ccccc3)c2=O)ccc1F [3j] | 4.6 ± 0.1 | 5.3 ± 1 | 7.8 ± 0.6 | 22.5 ± 5.8 | – | – | – | – | – | – | – |
| CC(F)(F)c1cccc(NC(=O)c2c(O)n(-c3ccccc3)c(=S)n(-c3ccccc3)c2=O)c1 [3h, N-(3-(1,1-Difluoroethyl)phenyl)-6-hydroxy-4-oxo-1,3-diphenyl-2-thioxo-1,2,3,4-tetrahydropyrimidine-5-carboxamide] | < 5 | < 5 | < 5 | 9.2 ± 0.2 | 3 ± 1.1 | 2.5 ± 0.4 | 2.7 ± 2.5 | 6 (≈ 2.88 µg/mL) | – | – | – |
| COc1cccc(CCNC(=O)c2c(O)n(-c3ccccc3)c(=S)n(-c3ccccc3)c2=O)c1 [5e, 6-Hydroxy-N-(3-methoxyphenethyl)-4-oxo-1,3-diphenyl-2-thioxo-1,2,3,4-tetrahydropyrimidine-5-carboxamide] | < 5 | < 5 | < 5 | 15.8 ± 3.4 | 3.2 ± 1.2 | 3.4 ± 0.1 | 3.3 ± 2.5 | 122 (≈ 57.8 µg/mL) | – | – | – |
| N#Cc1cccc(NC(=O)c2c(O)n(-c3ccccc3)c(=S)n(-c3ccccc3)c2=O)c1 [3c, N-(3-Cyanophenyl)-6-hydroxy-4-oxo-1,3-diphenyl-2-thioxo-1,2,3,4-tetrahydropyrimidine-5-carboxamide] | 16.9 ± 0.3 | 12.4 ± 1.3 | 14.4 ± 4.1 | 14.4 ± 3.8 | – | – | – | – | – | – | – |
| COc1cc(CCNC(=O)c2c(O)n(-c3ccccc3)c(=S)n(-c3ccccc3)c2=O)cc(OC)c1O [compound 7, 6-Hydroxy-N-(4-hydroxy-3,5-dimethoxyphenethyl)-4-oxo-1,3-diphenyl-2-thioxo-1,2,3,4-tetrahydropyrimidine-5-carboxamide] | 14.8 ± 1.4 | 13.3 ± 1.7 | 13.9 ± 7.6 | 74.4 ± 13.6 | – | – | – | – | – | – | – |
| O=C(Nc1cccc([N+](=O)[O-])c1)c1c(O)n(-c2ccccc2)c(=S)n(-c2ccccc2)c1=O [3d, 6-Hydroxy-N-(3-nitrophenyl)-4-oxo-1,3-diphenyl-2-thioxo-1,2,3,4-tetrahydropyrimidine-5-carboxamide] | 18.5 ± 3.1 | 11.9 ± 2.6 | 6.9 ± 0.3 | 10.2 ± 4.6 | – | – | – | – | – | – | – |
| CCOc1cccc(NC(=O)c2c(O)n(-c3ccccc3)c(=S)n(-c3ccccc3)c2=O)c1 [3a, N-(3-Ethoxyphenyl)-6-hydroxy-4-oxo-1,3-diphenyl-2-thioxo-1,2,3,4-tetrahydropyrimidine-5-carboxamide] | 3.6 ± 0.4 | 5.2 ± 0.9 | 5.7 ± 1.4 | 12.4 ± 3.7 | – | – | – | – | – | – | – |
| CC(C)Oc1cccc(NC(=O)c2c(O)n(-c3ccccc3)c(=S)n(-c3ccccc3)c2=O)c1 [3b, 6-Hydroxy-N-(3-isopropoxyphenyl)-4-oxo-1,3-diphenyl-2-thioxo-1,2,3,4-tetrahydropyrimidine-5-carboxamide] | 3 ± 0.3 | 4.2 ± 0.3 | 5.5 ± 0.1 | 9.7 ± 2.6 | – | – | – | 34 (≈ 16.1 µg/mL) | – | – | – |
| COc1cc(CNC(=O)c2c(O)n(-c3ccccc3)c(=S)n(-c3ccccc3)c2=O)cc(OC)c1O [compound 6, 6-Hydroxy-N-(4-hydroxy-3,5-dimethoxybenzyl)-4-oxo-1,3-diphenyl-2-thioxo-1,2,3,4-tetrahydropyrimidine-5-carboxamide] | 14.7 ± 0.3 | 19.1 ± 4.8 | 8.8 ± 0.3 | 108 ± 10.1 | – | – | – | – | > 100 | 7 | – |
| O=C(Nc1cccc(F)c1)c1c(O)n(-c2ccccc2)c(=S)n(-c2ccccc2)c1=O [3e, N-(3-Fluorophenyl)-6-hydroxy-4-oxo-1,3-diphenyl-2-thioxo-1,2,3,4-tetrahydropyrimidine-5-carboxamide] | 4.1 ± 0.2 | 5.6 ± 0.5 | 5.6 ± 0.6 | 15.1 ± 4.2 | – | – | – | – | – | – | – |
| COc1cccc(/C=C/CNC(=O)c2c(O)n(-c3ccccc3)c(=S)n(-c3ccccc3)c2=O)c1 [5f, (E)-6-Hydroxy-N-(3-(3-methoxyphenyl)allyl)-4-oxo-1,3-diphenyl-2-thioxo-1,2,3,4-tetrahydropyrimidine-5-carboxamide] | 4.4 ± 0.6 | 5.5 ± 1.1 | 5 ± 2.9 | 8.3 ± 2.3 | – | – | – | – | – | – | 2 |
| COc1cccc(CNC(=O)c2c(O)n(-c3ccccc3)c(=S)n(-c3ccccc3)c2=O)c1 [5d, 6-Hydroxy-N-(3-methoxybenzyl)-4-oxo-1,3-diphenyl-2-thioxo-1,2,3,4-tetrahydropyrimidine-5-carboxamide] | 4.8 ± 0.4 | 6.1 ± 1.1 | 7.7 ± 0.1 | 22.5 ± 7.2 | – | – | – | – | – | 1.4 | – |
| COc1cc(/C=C/CNC(=O)c2c(O)n(-c3ccccc3)c(=S)n(-c3ccccc3)c2=O)cc(OC)c1O [compound 8, (E)-6-Hydroxy-N-(3-(4-hydroxy-3,5-dimethoxyphenyl)allyl)-4-oxo-1,3-diphenyl-2-thioxo-1,2,3,4-tetrahydropyrimidine-5-carboxamide] | 9.5 ± 1.5 | 9.3 ± 0.2 | 9.8 ± 2.1 | 28 ± 4.4 | – | – | – | – | – | – | – |
